Paper PMC7584476, “Safety and efficacy of BAY1436032 in IDH1-mutant AML: phase I study results” (Leukemia, 2020)
Where two headings read alike, the source gives them in different places.

Legend:
[1] = Plasma pharmacokinetics of BAY1436032 (LC-MS/MS); format: in vivo, human; conditions: for AUC(0-t) / Cmax: geometric mean (CV)
Experimental: Plasma samples were collected at various times on C1-D1, C1-D2, C1-D8, and C1-D15 and stored frozen for PK assessments. Collection times on these days are indicated on Supplementary Fig. S1 (C1-D8 PK results are not shown). The evening dose of BAY1436032 was withheld on C1-D1 to facilitate assessment of the 24-h single-dose time point on C1-D2. Quantitative analysis of BAY1436032 (free acid) in plasma was performed as described in Supplementary Methods.
(§1) 13 Pharmacokinetics: Determination of BAY1436032 in plasma
(§2) 14 Quantitative analysis of BAY1436032 (free acid) in plasma was determined using a fully
(§3) 15 validated method after protein precipitation with acetonitrile/0.4 mM ammonium acetate
(§4) 16 (pH 3, 80:20, v/v) containing the internal standard, followed by separation employing
(§5) 17 high-pressure liquid chromatography-tandem mass spectrometric detection (LC-MS/MS).
(§6) 18 The method validation and sample analysis were performed in compliance with the
(§7) 19 pertinent guidelines on Bioanalytical Method Validation of FDA (2001) and EMA (2011).
(§8) 20 Samples were stored at or below -15°C and analyzed within 135 days of sampling.
(§9) 22 concentration (C max), area under the concentration versus time curve from time 0 to
(§10) 23 8 hours (AUC(0-8)), and AUC from time 0 to 12 hours (AUC(0-12)) were calculated using the
(§11) 24 model-independent (compartment -free) method. The dose proportionality in the 300 mg
(§12) 25 to 1500 mg dose range was evaluated by performing explorative analyses of variance
(§13) 26 (ANOVA) on the log -transformed values of Cmax and AUC(0-12), calculated from single and
27 continuous BID dosing PK profiles. […]

wtIDH1 = conditions: preclinical; cited from earlier work
[2] = Stability of BAY1436032 in stored plasma samples; format: in vitro ADME, human; conditions: at or below -15°C, 135 days
Experimental: as §1, §2, §3, §4, §5, §6, §7, §8, §9, §10, §11, §12, §13
27 continuous BID dosing PK profiles.
29 Pharmacodynamics: Determination of R -2HG in plasma
30 Plasma R-2HG concentrations were measured by Eurofins using a qualified LC -MS/MS
31 method with a lower limit of quantification (LLOQ) of 25 ng/mL. For assay validation […]

primary AML samples = conditions: cited from earlier work

Compound: C[C@H]1C[C@@H](n2c(Nc3ccc(OC(F)(F)F)cc3)nc3cc(CCC(=O)O)ccc32)CC(C)(C)C1 [BAY1436032]
- Accumulation ([1]; C1-D15, continuous BID): Minimal accumulation
- Dose-proportionality of exposure ([1]; continuous BID administration): dose-proportionality was not apparent
- AUC(0-t) ([1]; human, plasma, oral, 300 mg, C1-D1 single-dose, 300 mg, n=7, read-out: AUC(0-8)): 6600 ng·h/mL
- AUC(0-t) ([1]; human, plasma, oral, 300 mg, C1-D1 single-dose, 300 mg, n=7, read-out: AUC(0-12)): 7440 ng·h/mL
- Cmax ([1]; human, plasma, oral, 300 mg, C1-D1 single-dose, 300 mg, n=7, read-out: Cmax): 2000 ng/mL
- AUC(0-t) ([1]; human, plasma, oral, 300 mg, C1-D15 continuous BID, 300 mg BID, n=5, read-out: AUC(0-8)md): 5920 ng·h/mL
- AUC(0-t) ([1]; human, plasma, oral, 300 mg, C1-D15 continuous BID, 300 mg BID, n=5, read-out: AUC(0-12)md): 6750 ng·h/mL
- Cmax ([1]; human, plasma, oral, 300 mg, C1-D15 continuous BID, 300 mg BID, n=6, read-out: Cmax,md): 1880 ng/mL
- AUC(0-t) ([1]; human, plasma, oral, 600 mg, C1-D1 single-dose, 600 mg, n=4, read-out: AUC(0-8)): 12500 ng·h/mL
- AUC(0-t) ([1]; human, plasma, oral, 600 mg, C1-D1 single-dose, 600 mg, n=4, read-out: AUC(0-12)): 15200 ng·h/mL
- Cmax ([1]; human, plasma, oral, 600 mg, C1-D1 single-dose, 600 mg, n=4, read-out: Cmax): 3200 ng/mL
- AUC(0-t) ([1]; human, plasma, oral, 600 mg, C1-D15 continuous BID, 600 mg BID, n=3, read-out: AUC(0-8)md): 22300 ng·h/mL
- AUC(0-t) ([1]; human, plasma, oral, 600 mg, C1-D15 continuous BID, 600 mg BID, n=3, read-out: AUC(0-12)md): 25400 ng·h/mL
- Cmax ([1]; human, plasma, oral, 600 mg, C1-D15 continuous BID, 600 mg BID, n=4, read-out: Cmax,md): 5050 ng/mL
- AUC(0-t) ([1]; human, plasma, oral, 1200 mg, C1-D1 single-dose, 1200 mg, n=7, read-out: AUC(0-8)): 20700 ng·h/mL
- AUC(0-t) ([1]; human, plasma, oral, 1200 mg, C1-D1 single-dose, 1200 mg, n=7, read-out: AUC(0-12)): 24800 ng·h/mL
- Cmax ([1]; human, plasma, oral, 1200 mg, C1-D1 single-dose, 1200 mg, n=7, read-out: Cmax): 5310 ng/mL
- AUC(0-t) ([1]; human, plasma, oral, 1200 mg, C1-D15 continuous BID, 1200 mg BID, n=5, read-out: AUC(0-12)md): 21800 ng·h/mL
- AUC(0-t) ([1]; human, plasma, oral, 1200 mg, C1-D15 continuous BID, 1200 mg BID, n=6, read-out: AUC(0-8)md): 22900 ng·h/mL
- Cmax ([1]; human, plasma, oral, 1200 mg, C1-D15 continuous BID, 1200 mg BID, n=7, read-out: Cmax,md): 6050 ng/mL
- AUC(0-t) ([1]; human, plasma, oral, 1500 mg, C1-D1 single-dose, 1500 mg, n=9, read-out: AUC(0-8)): 42200 ng·h/mL
- AUC(0-t) ([1]; human, plasma, oral, 1500 mg, C1-D1 single-dose, 1500 mg, n=9, read-out: AUC(0-12)): 50300 ng·h/mL
- Cmax ([1]; human, plasma, oral, 1500 mg, C1-D1 single-dose, 1500 mg, n=9, read-out: Cmax): 9820 ng/mL
- AUC(0-t) ([1]; human, plasma, oral, 1500 mg, C1-D15 continuous BID, 1500 mg BID, n=3, read-out: AUC(0-12)md): 44500 ng·h/mL
- AUC(0-t) ([1]; human, plasma, oral, 1500 mg, C1-D15 continuous BID, 1500 mg BID, n=5, read-out: AUC(0-8)md): 34000 ng·h/mL
- Cmax ([1]; human, plasma, oral, 1500 mg, C1-D15 continuous BID, 1500 mg BID, n=7, read-out: Cmax,md): 9460 ng/mL
- Tmax ([1]; human, plasma, oral, single-dose and continuous BID administration, read-out: Time of maximum plasma concentrations): 3 to 4 h
- Half-life ([1]; in vivo): relatively short
- Time at which plasma concentrations were detectable ([1]; single oral administration): 30 min
- Increase of exposure with dose ([1]; single-dose, 300 to 1500 mg, dose-proportional manner): 1.6–2.0 fold
- Activity against wtIDH1 (wtIDH1): little activity
- Stability in stored plasma samples [2]: stable
- Number of colony-forming cells (primary AML samples): decreased
